This note sets out measurements from patent US12252524B2, “GIP/GLP1 co-agonist compounds” (Eli Lilly and Company, priority 2018, dated 2025).

Numbered stars: 1 amine (or outer) side, 2 acyl side, 3 side chain; on linkers, the order of the positions; unused ones are H or OH. Square brackets hold non-standard residues; d marks the D form. Side chains are listed from the residue outwards. Peptide text beside a SMILES is read from it. * marks the point of attachment. C20 diacid = O=C(O)CCCCCCCCCCCCCCCCCCC(=O)*; γGlu = O=C(O)[C@H](CCC(=O)[*:2])N[*:1]; AEEA = NCCOCCOCC(=O)O; Aib = CC(C)(N)C(=O)O

One assay addresses human GLP-1R (Homo sapiens, UniProt P43220). The assay is described as follows: [125I]-GLP-1 binding (SPA), human GLP-1 receptor. Details: expressed in transfected cells; crude membranes. The conditions noted are these: read-out: hGLP1R Ki, (nM) (SEM, n). A digest of the protocol:
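Assay buffer: HEPES 25 mM, pH 7.4, CaCl2 2.5 mM, MgCl2 1 mM, with EDTA-free protease inhibitors. Receptor came from crude cell membranes prepared by homogenization and centrifugation at 4° C. IC50s came from four-parameter fits (maximum, minimum, IC50, Hill slope) and were expressed as Ki geometric means with SEM.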

In assay [1] the target is human GLP-1 receptor (GLP-1R) (Homo sapiens, UniProt P43220). The assay is described as follows: cAMP pharmacological functional assay in presence of casein, hGLP-1R. Type of assay: cell-based. Conditions: HEK293 cells expressing hGLP-1R, 0.1% Casein, geometric mean; read-out: hGLP1R cAMP Rel EC50 nM (SEM, n).
The target of the next assay is T1, human Gcg receptor (Homo sapiens, UniProt P47871).
T1 construct: expressed in transfected cells; crude membranes
The assay is described as follows: [125I]-Glucagon binding (SPA), human Gcg receptor. Conditions: read-out: hGLcgR Ki, nM (SEM, n). A digest of the protocol:
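Crude membranes from cells expressing the receptor, prepared by hypotonic lysis in 50 mM Tris HCl pH 7.5 with protease inhibitors, homogenization and differential centrifugation, were used in a WGA-bead SPA. Binding buffer: 25 mM HEPES pH 7.4, 2.5 mM CaCl2, 1 mM MgCl2, bacitracin, Tween-20.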

The target of assay [2] is T2, gastric inhibitory peptide receptor (GIPR) (Homo sapiens, UniProt P48546).
T2 sequence (P48546 22-466): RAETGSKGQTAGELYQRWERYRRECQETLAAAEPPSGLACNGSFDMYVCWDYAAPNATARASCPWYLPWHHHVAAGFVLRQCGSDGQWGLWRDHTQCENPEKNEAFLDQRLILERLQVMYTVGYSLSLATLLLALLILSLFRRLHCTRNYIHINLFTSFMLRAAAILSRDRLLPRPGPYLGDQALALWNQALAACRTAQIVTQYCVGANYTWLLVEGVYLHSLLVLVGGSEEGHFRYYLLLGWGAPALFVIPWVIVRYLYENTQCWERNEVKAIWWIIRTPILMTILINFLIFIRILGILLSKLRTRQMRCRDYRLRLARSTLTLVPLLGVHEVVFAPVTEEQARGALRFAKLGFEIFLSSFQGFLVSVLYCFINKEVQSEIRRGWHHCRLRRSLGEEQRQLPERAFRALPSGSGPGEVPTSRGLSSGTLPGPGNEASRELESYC
The assay is described as follows: cAMP pharmacological functional assay in presence of casein, hGIPR. Type of assay: cell-based. Conditions: HEK293 cells expressing hGIPR, 0.1% Casein, geometric mean; read-out: hGIPR cAMP Rel EC50 nM (SEM, n).

A further assay addresses T3, human GIP receptor (Homo sapiens, UniProt P48546).
T3 construct: expressed in transfected cells; crude membranes
T3 sequence (P48546 22-466): T2 sequence (P48546 22-466)
The assay is described as follows: [125I]-GIP binding (SPA), human GIP receptor. Conditions: read-out: hGIPR Ki, nM (SEM, n).

T1 sequence (P47871 26-477): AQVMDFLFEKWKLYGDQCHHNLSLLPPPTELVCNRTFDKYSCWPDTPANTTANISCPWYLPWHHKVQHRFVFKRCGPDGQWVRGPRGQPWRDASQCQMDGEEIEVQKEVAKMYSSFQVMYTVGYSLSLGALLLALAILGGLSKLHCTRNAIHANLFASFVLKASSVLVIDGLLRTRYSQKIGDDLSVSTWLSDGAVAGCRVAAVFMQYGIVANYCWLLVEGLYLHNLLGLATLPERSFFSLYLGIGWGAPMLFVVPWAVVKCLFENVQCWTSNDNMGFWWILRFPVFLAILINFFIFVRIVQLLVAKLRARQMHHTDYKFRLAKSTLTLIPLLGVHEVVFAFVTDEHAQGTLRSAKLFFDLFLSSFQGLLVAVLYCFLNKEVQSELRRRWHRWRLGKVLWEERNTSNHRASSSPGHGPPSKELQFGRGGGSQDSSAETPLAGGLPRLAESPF
Sequence of human GLP-1R (P43220 24-463): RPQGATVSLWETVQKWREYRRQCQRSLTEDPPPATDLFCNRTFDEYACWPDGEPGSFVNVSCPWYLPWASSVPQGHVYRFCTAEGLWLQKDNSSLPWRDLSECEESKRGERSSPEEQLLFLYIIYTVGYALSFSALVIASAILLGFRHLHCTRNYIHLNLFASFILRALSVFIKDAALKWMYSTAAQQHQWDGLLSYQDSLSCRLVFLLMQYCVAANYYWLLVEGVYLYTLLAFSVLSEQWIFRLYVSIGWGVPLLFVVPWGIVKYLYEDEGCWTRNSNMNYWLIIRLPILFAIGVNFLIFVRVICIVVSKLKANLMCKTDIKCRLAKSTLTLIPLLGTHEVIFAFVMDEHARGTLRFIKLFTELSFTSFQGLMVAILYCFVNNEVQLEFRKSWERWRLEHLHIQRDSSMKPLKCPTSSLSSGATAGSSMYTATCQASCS
Sequence of human GLP-1 receptor (GLP-1R) (P43220 24-463): as above

Regarding `CC[C@H](C)[C@H](NC(=O)[C@H](CCCCN)NC(=O)[C@H](CC(=O)O)NC(=O)[C@H](CC(C)C)NC(=O)[C@H](CC(C)C)NC(=O)[C@@H](NC(=O)[C@H](CO)NC(=O)[C@H](Cc1ccc(O)cc1)NC(=O)[C@H](CC(=O)O)NC(=O)[C@H](CO)NC(=O)[C@@H](NC(=O)[C@H](Cc1ccccc1)NC(=O)[C@@H](NC(=O)CNC(=O)[C@H](CCC(=O)O)NC(=O)C(C)(C)NC(=O)[C@@H](N)Cc1ccc(O)cc1)[C@@H](C)O)[C@@H](C)O)[C@@H](C)CC)C(=O)N[C@@H](C)C(=O)N[C@@H](CCC(N)=O)C(=O)NC(C)(C)C(=O)N[C@@H](C)C(=O)N[C@@H](Cc1ccccc1)C(=O)N[C@H](C(=O)N[C@@H](CCC(=O)O)C(=O)N[C@@H](Cc1ccc(O)cc1)C(=O)N[C@@H](CC(C)C)C(=O)N[C@H](C(=O)N[C@@H](CCC(=O)O)C(=O)NCC(=O)NCC(=O)N[C@@H](CCCCNC(=O)COCCOCCNC(=O)COCCOCCNC(=O)CC[C@H](NC(=O)CCCCCCCCCCCCCCCCCCC(=O)O)C(=O)O)C(=O)N[C@@H](CO)C(=O)N[C@@H](CO)C(=O)NCC(=O)N[C@@H](C)C(=O)N1CCC[C@H]1C(=O)N1CCC[C@H]1C(=O)N1CCC[C@H]1C(=O)N[C@@H](CO)C(N)=O)[C@@H](C)CC)[C@@H](C)CC` [Example 40] (H-Y[Aib]EGTFTSDYSILLDKIAQ[Aib]AFIEYLIEGGK([AEEA-AEEA-γGlu-C20 diacid])SSGAPPPS-NH2), the Ki (commonly a measure of affinity in units of concentration, obtained from inhibition or displacement) at human GLP-1R came out at 7.56 nM; at human Gcg receptor it was 150 nM; at human GIP receptor, 0.0345 nM. Besides, the EC50 (commonly the concentration that produces a half-maximal response) in assay [1] was 0.746 nM; in assay [2], 0.136 nM.

As to `CC[C@H](C)[C@H](NC(=O)[C@H](CCCCN)NC(=O)[C@H](CC(=O)O)NC(=O)[C@H](CC(C)C)NC(=O)[C@H](CC(C)C)NC(=O)[C@@H](NC(=O)[C@H](CO)NC(=O)[C@H](Cc1ccc(O)cc1)NC(=O)[C@H](CC(=O)O)NC(=O)[C@H](CO)NC(=O)[C@@H](NC(=O)[C@H](Cc1ccccc1)NC(=O)[C@@H](NC(=O)CNC(=O)[C@H](CCC(=O)O)NC(=O)C(C)(C)NC(=O)[C@@H](N)Cc1ccc(O)cc1)[C@@H](C)O)[C@@H](C)O)[C@@H](C)CC)C(=O)N[C@@H](C)C(=O)N[C@@H](CCC(N)=O)C(=O)NC(C)(C)C(=O)N[C@@H](C)C(=O)N[C@@H](Cc1ccccc1)C(=O)N[C@H](C(=O)N[C@@H](CCC(=O)O)C(=O)N[C@@H](Cc1ccc(O)cc1)C(=O)N[C@@H](CC(C)C)C(=O)N[C@H](C(=O)N[C@@H](CCC(=O)O)C(=O)NCC(=O)NCC(=O)N1CCC[C@H]1C(=O)N[C@@H](CCCCNC(=O)COCCOCCNC(=O)COCCOCCNC(=O)CC[C@H](NC(=O)CCCCCCCCCCCCCCCCCCC(=O)O)C(=O)O)C(=O)N[C@@H](CO)C(=O)NCC(=O)N[C@@H](C)C(=O)N1CCC[C@H]1C(=O)N1CCC[C@H]1C(=O)N1CCC[C@H]1C(=O)N[C@@H](CO)C(N)=O)[C@@H](C)CC)[C@@H](C)CC` [Example 41] (H-Y[Aib]EGTFTSDYSILLDKIAQ[Aib]AFIEYLIEGGPK([AEEA-AEEA-γGlu-C20 diacid])SGAPPPS-NH2), the Ki at human GLP-1R amounted to 13.4 nM; at human Gcg receptor, 165 nM; at human GIP receptor, 0.0551 nM. The EC50 stood at 0.96 nM in assay [1] and 0.229 nM in assay [2].

In the case of `CC[C@H](C)[C@H](NC(=O)[C@H](CCCCN)NC(=O)[C@H](CC(=O)O)NC(=O)[C@H](CC(C)C)NC(=O)[C@H](CC(C)C)NC(=O)[C@@H](NC(=O)[C@H](CO)NC(=O)[C@H](Cc1ccc(O)cc1)NC(=O)[C@H](CC(=O)O)NC(=O)[C@H](CO)NC(=O)[C@@H](NC(=O)[C@H](Cc1ccccc1)NC(=O)[C@@H](NC(=O)CNC(=O)[C@H](CCC(=O)O)NC(=O)C(C)(C)NC(=O)[C@@H](N)Cc1ccc(O)cc1)[C@@H](C)O)[C@@H](C)O)[C@@H](C)CC)C(=O)N[C@@H](C)C(=O)N[C@@H](CCC(N)=O)C(=O)NC(C)(C)C(=O)N[C@@H](C)C(=O)N[C@@H](Cc1ccccc1)C(=O)N[C@H](C(=O)N[C@@H](CCC(=O)O)C(=O)N[C@@H](Cc1ccc(O)cc1)C(=O)N[C@@H](CC(C)C)C(=O)N[C@H](C(=O)N[C@@H](CCC(=O)O)C(=O)NCC(=O)NCC(=O)N1CCC[C@H]1C(=O)N[C@@H](CO)C(=O)N[C@@H](CCCCNC(=O)COCCOCCNC(=O)COCCOCCNC(=O)CC[C@H](NC(=O)CCCCCCCCCCCCCCCCCCC(=O)O)C(=O)O)C(=O)NCC(=O)N[C@@H](C)C(=O)N1CCC[C@H]1C(=O)N1CCC[C@H]1C(=O)N1CCC[C@H]1C(=O)N[C@@H](CO)C(N)=O)[C@@H](C)CC)[C@@H](C)CC` [Example 42] (H-Y[Aib]EGTFTSDYSILLDKIAQ[Aib]AFIEYLIEGGPSK([AEEA-AEEA-γGlu-C20 diacid])GAPPPS-NH2), the inhibition constant Ki at human GLP-1R was 13.2 nM; on human Gcg receptor, 160 nM; at human GIP receptor, 0.0514 nM. The figures for the EC50 in assay [1] and in assay [2] were 1.45 nM and 0.161 nM, respectively.

In the case of `CC[C@H](C)[C@H](NC(=O)[C@H](CCCCN)NC(=O)[C@H](CC(=O)O)NC(=O)[C@H](CC(C)C)NC(=O)[C@H](CC(C)C)NC(=O)[C@@H](NC(=O)[C@H](CO)NC(=O)[C@H](Cc1ccc(O)cc1)NC(=O)[C@H](CC(=O)O)NC(=O)[C@H](CO)NC(=O)[C@@H](NC(=O)[C@H](Cc1ccccc1)NC(=O)[C@@H](NC(=O)CNC(=O)[C@H](CCC(=O)O)NC(=O)C(C)(C)NC(=O)[C@@H](N)Cc1ccc(O)cc1)[C@@H](C)O)[C@@H](C)O)[C@@H](C)CC)C(=O)N[C@@H](C)C(=O)N[C@@H](CCC(N)=O)C(=O)NC(C)(C)C(=O)N[C@@H](C)C(=O)N[C@@H](Cc1ccccc1)C(=O)N[C@H](C(=O)N[C@@H](CCC(=O)O)C(=O)N[C@@H](Cc1ccc(O)cc1)C(=O)N[C@@H](CC(C)C)C(=O)N[C@H](C(=O)N[C@@H](CCC(=O)O)C(=O)NCC(=O)NCC(=O)N1CCC[C@H]1C(=O)N[C@@H](CO)C(=O)N[C@@H](CO)C(=O)N[C@@H](CCCCNC(=O)COCCOCCNC(=O)COCCOCCNC(=O)CC[C@H](NC(=O)CCCCCCCCCCCCCCCCCCC(=O)O)C(=O)O)C(=O)N[C@@H](C)C(=O)N1CCC[C@H]1C(=O)N1CCC[C@H]1C(=O)N1CCC[C@H]1C(=O)N[C@@H](CO)C(N)=O)[C@@H](C)CC)[C@@H](C)CC` [Example 43] (H-Y[Aib]EGTFTSDYSILLDKIAQ[Aib]AFIEYLIEGGPSSK([AEEA-AEEA-γGlu-C20 diacid])APPPS-NH2; N-terminus assumed), the Ki at human GLP-1R came to 11.8 nM; at human Gcg receptor it was 134 nM; at human GIP receptor, 0.101 nM. For the same compound, the EC50 came out at 0.862 nM in assay [1] and 0.112 nM in assay [2].
